Assay results taken from patent US10981911B2, “Imidazopyrrolopyridine as inhibitors of the JAK family of kinases” (Janssen Pharmaceutica NV, priority 2016, dated 2021).

What was measured:
Type in all cases: biochemical
Tyk2-JH1JH2 = Tyk2-JH1JH2 (Homo sapiens (Human), UniProt P29597, C1142A/C936A); test: Enzymatic inhibition assay (RapidFire HTMS), Tyk2; details: 50 μM ATP, 200 μM substrate
Procedure, shortened: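 Compounds were tested in duplicate as 11-point 1:3 or 1:4 DMSO dilutions (≤0.25% DMSO final) in 20 μL reactions at 25 °C for 90 min, with Tyk2 pre-incubated 30 min with 2 mM ATP. Reactions were quenched with TFA plus internal standard peptide, and phosphorylated product was quantified by RapidFire C4 SPE–ESI MS.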

JAK1-JH1JH2 = JAK1-JH1JH2 (Homo sapiens (Human), UniProt P23458); test: Enzymatic inhibition assay (RapidFire HTMS), JAK1; details: 12.5 μM ATP, 200 μM substrate; read-out: JAK1-JH2JH1 IC50
Procedure, shortened: (§1)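 Quenched with 0.5% TFA plus internal-standard peptide; phosphorylated product quantified by RapidFire C4 SPE–ESI-MS, 11-point 1:3 or 1:4 dilutions in duplicate.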

JAK2-JH1JH2 = JAK2-JH1JH2 (Homo sapiens (Human), UniProt O60674); test: Enzymatic inhibition assay (RapidFire HTMS), JAK2; details: 30 μM ATP, 40 μM substrate
Procedure, shortened: as §1

JAK3-JH1JH2 = JAK3-JH1JH2 (Homo sapiens (Human), UniProt P52333); test: Enzymatic inhibition assay (RapidFire HTMS), JAK3; details: 150 μM ATP, 40 μM substrate
Procedure, shortened: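 Compounds tested in duplicate over 11-point 1:3 or 1:4 dilution series; no-enzyme wells as negative control. After 45 min at 25 °C, TFA quench with internal standard, and phosphorylated product quantified by RapidFire–QTrap mass spectrometry relative to the uninhibited reaction.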

Chain of JAK2-JH1JH2 (O60674 532-1132): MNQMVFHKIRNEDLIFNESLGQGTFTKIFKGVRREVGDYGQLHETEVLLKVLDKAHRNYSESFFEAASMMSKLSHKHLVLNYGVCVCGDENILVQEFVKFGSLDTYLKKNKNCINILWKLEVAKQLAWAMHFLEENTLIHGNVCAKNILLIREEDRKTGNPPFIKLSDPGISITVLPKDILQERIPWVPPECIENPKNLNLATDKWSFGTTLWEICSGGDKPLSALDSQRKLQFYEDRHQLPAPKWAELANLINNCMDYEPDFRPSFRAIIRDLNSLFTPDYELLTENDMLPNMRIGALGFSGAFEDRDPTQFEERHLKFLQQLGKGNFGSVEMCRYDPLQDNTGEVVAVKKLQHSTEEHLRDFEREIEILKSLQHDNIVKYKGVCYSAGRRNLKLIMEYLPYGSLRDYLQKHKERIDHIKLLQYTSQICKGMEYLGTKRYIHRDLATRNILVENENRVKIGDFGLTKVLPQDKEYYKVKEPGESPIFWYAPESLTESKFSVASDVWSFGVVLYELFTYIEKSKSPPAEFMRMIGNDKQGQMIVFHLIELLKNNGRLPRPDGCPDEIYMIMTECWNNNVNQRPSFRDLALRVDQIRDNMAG
Chain of JAK3-JH1JH2 (P52333 512-1124): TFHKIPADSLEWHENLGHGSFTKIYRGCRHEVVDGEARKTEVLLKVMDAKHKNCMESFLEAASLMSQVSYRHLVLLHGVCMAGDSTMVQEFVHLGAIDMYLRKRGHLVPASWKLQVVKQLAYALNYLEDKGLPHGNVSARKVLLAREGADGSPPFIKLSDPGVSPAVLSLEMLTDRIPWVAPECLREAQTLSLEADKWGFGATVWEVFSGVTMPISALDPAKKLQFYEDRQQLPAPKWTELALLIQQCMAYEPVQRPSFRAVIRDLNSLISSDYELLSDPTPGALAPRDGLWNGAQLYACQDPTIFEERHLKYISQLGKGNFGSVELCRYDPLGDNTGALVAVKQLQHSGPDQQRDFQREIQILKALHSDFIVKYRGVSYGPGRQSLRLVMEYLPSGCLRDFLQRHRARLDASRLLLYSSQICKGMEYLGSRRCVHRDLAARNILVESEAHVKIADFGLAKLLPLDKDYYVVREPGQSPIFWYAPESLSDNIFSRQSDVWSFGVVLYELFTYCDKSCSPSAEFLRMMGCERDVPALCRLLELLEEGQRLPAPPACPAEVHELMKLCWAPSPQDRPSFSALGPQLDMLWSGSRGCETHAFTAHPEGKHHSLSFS
Chain of Tyk2-JH1JH2 (P29597 580-1182 C936A/C1142A): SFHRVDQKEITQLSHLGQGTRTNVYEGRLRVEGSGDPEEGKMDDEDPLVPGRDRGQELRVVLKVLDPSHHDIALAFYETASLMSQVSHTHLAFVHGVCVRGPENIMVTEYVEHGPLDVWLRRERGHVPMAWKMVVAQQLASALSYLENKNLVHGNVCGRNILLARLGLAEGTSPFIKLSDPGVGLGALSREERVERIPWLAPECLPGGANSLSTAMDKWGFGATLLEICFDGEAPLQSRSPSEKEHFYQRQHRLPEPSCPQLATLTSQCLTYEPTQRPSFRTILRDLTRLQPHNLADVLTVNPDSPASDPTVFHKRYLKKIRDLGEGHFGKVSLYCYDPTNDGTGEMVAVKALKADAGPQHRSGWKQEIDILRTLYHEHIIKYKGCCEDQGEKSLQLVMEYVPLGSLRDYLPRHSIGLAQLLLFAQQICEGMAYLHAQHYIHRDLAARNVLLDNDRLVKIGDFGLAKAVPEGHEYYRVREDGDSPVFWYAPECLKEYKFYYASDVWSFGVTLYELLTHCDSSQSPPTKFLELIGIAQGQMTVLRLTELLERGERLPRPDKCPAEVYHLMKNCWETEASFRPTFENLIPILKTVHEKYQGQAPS
Chain of JAK1-JH1JH2 (P23458 574-1154): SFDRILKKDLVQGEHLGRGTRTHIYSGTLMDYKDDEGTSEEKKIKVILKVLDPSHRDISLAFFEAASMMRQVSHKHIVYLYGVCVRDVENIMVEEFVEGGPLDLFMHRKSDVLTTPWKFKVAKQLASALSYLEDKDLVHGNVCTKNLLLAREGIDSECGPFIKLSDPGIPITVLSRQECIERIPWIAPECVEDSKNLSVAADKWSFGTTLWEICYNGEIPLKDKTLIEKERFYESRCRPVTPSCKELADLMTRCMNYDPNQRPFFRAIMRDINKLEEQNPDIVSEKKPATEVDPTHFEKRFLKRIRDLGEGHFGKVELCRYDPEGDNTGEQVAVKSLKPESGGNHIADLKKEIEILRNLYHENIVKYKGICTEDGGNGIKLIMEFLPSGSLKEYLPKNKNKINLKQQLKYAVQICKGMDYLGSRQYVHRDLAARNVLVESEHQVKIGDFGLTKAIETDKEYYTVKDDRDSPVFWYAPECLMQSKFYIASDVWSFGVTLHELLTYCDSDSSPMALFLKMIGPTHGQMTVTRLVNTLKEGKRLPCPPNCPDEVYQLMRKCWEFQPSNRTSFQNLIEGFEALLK

Row | IC50 (Tyk2-JH1JH2) | IC50 (JAK1-JH1JH2) | IC50 (JAK2-JH1JH2) | IC50 (JAK3-JH1JH2) | Structure (SMILES)
1 | 44.3 nM | 0.7 nM | 11.4 nM | 431 nM | N#CC[C@H]1CC[C@H](n2c(-c3ccc(C(=O)c4ccc(CO)cc4)cc3)nc3cnc4[nH]ccc4c32)CC1 [Ex. 121, 2-((1r,4r)-4-(2-(4-(4-(Hydroxymethyl)benzoyl)phenyl)imidazo[4,5-d]pyrrolo[2,3-b]pyridin-1(6H)-yl)cyclohexyl)acetonitrile]
2 | 21.6 nM | 0.7 nM | 20.8 nM | 437 nM | N#CC[C@H]1CC[C@H](n2c(C(=O)NC3COC3)nc3cnc4[nH]ccc4c32)CC1 [Ex. 122, 1-((1r,4r)-4-(Cyanomethyl)cyclohexyl)-N-(oxetan-3-yl)-1,6-dihydroimidazo[4,5-d]pyrrolo[2,3-b]pyridine-2-carboxamide]
3 | 18.1 nM | 0.7 nM | 4.4 nM | 141 nM | N#CC[C@H]1CC[C@H](n2c(CO/N=C(\N)c3ccccc3)nc3cnc4[nH]ccc4c32)CC1 [Ex. 124, (Z*)—N-((1-((1r,4r)-4-(Cyanomethyl)cyclohexyl)-1,6-dihydroimidazo[4,5-d]pyrrolo[2,3-b]pyridin-2-yl)methoxy)benzimidamide]
4 | 14.9 nM | 0.7 nM | 27.1 nM | 622 nM | COCC/C(=N/O)NCc1nc2cnc3[nH]ccc3c2n1[C@H]1CC[C@H](CC#N)CC1 [Ex. 125]
5 | 14.2 nM | 0.7 nM | 19.4 nM | 317 nM | C#Cc1ccc(C(=O)c2ccc(COCc3nc4cnc5[nH]ccc5c4n3[C@H]3CC[C@H](CC#N)CC3)cc2)cc1 [Ex. 126, 2-((1r,4r)-4-(2-(((4-(4-Ethynylbenzoyl)benzyl)oxy)methyl)imidazo[4,5-d]pyrrolo[2,3-b]pyridin-1(6H)-yl)cyclohexyl)acetonitrile]
6 | 12.8 nM | 0.7 nM | 69.4 nM | 788 nM | N#CC[C@H]1CC[C@H](n2c(CC(=O)N3CC[C@@H](O)C3)nc3cnc4[nH]ccc4c32)CC1 [Ex. 127, 2-((1r,4r)-4-(2-(2-((R)-3-Hydroxypyrrolidin-1-yl)-2-oxoethyl)imidazo[4,5-d]pyrrolo[2,3-b]pyridin-1(6H)-yl)cyclohexyl)acetonitrile]
7 | 64.4 nM | 0.7 nM | 110 nM | 1090 nM | CCOC(=O)N1CC(c2nc3cnc4[nH]ccc4c3n2[C@H]2CC[C@H](CC#N)CC2)C1 [Ex. 128, Ethyl 3-(1-((1r,4r)-4-(Cyanomethyl)cyclohexyl)-1,6-dihydroimidazo[4,5-d]pyrrolo[2,3-b]pyridin-2-yl)azetidine-1-carboxylate]
8 | 10.7 nM | 0.8 nM | 150 nM | 2690 nM | CC(C)c1noc(=O)n1Cc1nc2cnc3[nH]ccc3c2n1[C@H]1CC[C@H](CC#N)CC1 [Ex. 129, 2-((1r,4r)-4-(2-((3-Isopropyl-5-oxo-1,2,4-oxadiazol-4(5H)-yl)methyl)imidazo[4,5-d]pyrrolo[2,3-b]pyridin-1(6H)-yl)cyclohexyl)acetonitrile]
9 | 19.4 nM | 0.8 nM | 15.7 nM | 130 nM | C#Cc1ccc(C(=O)c2ccc(OCc3nc4cnc5[nH]ccc5c4n3[C@H]3CC[C@H](CC#N)CC3)cc2)cc1 [Ex. 130, 2-((1r,4r)-4-(2-((4-(4-Ethynylbenzoyl)phenoxy)methyl)imidazo[4,5-d]pyrrolo[2,3-b]pyridin-1(6H)-yl)cyclohexyl)acetonitrile]
10 | 10.5 nM | 0.8 nM | 5.6 nM | 100 nM | N#CC[C@H]1CC[C@H](n2c(CC(=O)NC34CCC(CO)(CC3)C4)nc3cnc4[nH]ccc4c32)CC1 [Ex. 131, 2-(1-((1r,4r)-4-(Cyanomethyl)cyclohexyl)-1,6-dihydroimidazo[4,5-d]pyrrolo[2,3-b]pyridin-2-yl)-N-(4-(hydroxymethyl)bicyclo[2.2.1]heptan-1-yl)acetamide]
11 | 16.1 nM | 0.8 nM | 13.8 nM | 61.7 nM | CC(C)(O)CNC(=O)Cc1nc2cnc3[nH]cc(F)c3c2n1[C@H]1CC[C@H](CC#N)CC1 [Ex. 132, 2-(1-((1r,4r)-4-(Cyanomethyl)cyclohexyl)-8-fluoro-1,6-dihydroimidazo[4,5-d]pyrrolo[2,3-b]pyridin-2-yl)-N-(2-hydroxy-2-methylpropyl)acetamide]
12 | 19.8 nM | 0.8 nM | 9.4 nM | 154 nM | CNC(=O)c1nc2cnc3[nH]ccc3c2n1[C@H]1CC[C@H](CC#N)CC1 [Ex. 133, 1-((1r,4r)-4-(Cyanomethyl)cyclohexyl)-N-methyl-1,6-dihydroimidazo[4,5-d]pyrrolo[2,3-b]pyridine-2-carboxamide]
13 | 91.2 nM | 0.8 nM | 118 nM | 1290 nM | CS(=O)(=O)N1CC(c2nc3cnc4[nH]ccc4c3n2[C@H]2CC[C@H](CC#N)CC2)C1 [Ex. 134, 2-((1r,4r)-4-(2-(1-(Methylsulfonyl)azetidin-3-yl)imidazo[4,5-d]pyrrolo[2,3-b]pyridin-1(6H)-yl)cyclohexyl)acetonitrile]
14 | 14.2 nM | 0.9 nM | 25.1 nM | 280 nM | CC(C)COC(=O)NCc1nc2cnc3[nH]ccc3c2n1[C@H]1CC[C@H](CC#N)CC1 [Ex. 137, Isobutyl ((1-((1r,4r)-4-(Cyanomethyl)cyclohexyl)-1,6-dihydroimidazo[4,5-d]pyrrolo[2,3-b]pyridin-2-yl)methyl)carbamate]
15 | 18.7 nM | 0.9 nM | 18.9 nM | 195 nM | N#CCCNC(=O)c1nc2cnc3[nH]ccc3c2n1[C@H]1CC[C@H](CC#N)CC1 [Ex. 138, N-(2-Cyanoethyl)-1-((1r,4r)-4-(cyanomethyl)cyclohexyl)-1,6-dihydroimidazo[4,5-d]pyrrolo[2,3-b]pyridine-2-carboxamide]
16 | 53.5 nM | 0.9 nM | 66.9 nM | 746 nM | N#CC[C@H]1CC[C@H](n2c(CNC(=O)C3CCCCC3)nc3cnc4[nH]ccc4c32)CC1 [Ex. 139, N-((1-((1r,4r)-4-(Cyanomethyl)cyclohexyl)-1,6-dihydroimidazo[4,5-d]pyrrolo[2,3-b]pyridin-2-yl)methyl)cyclohexanecarboxamide]
17 | 14.9 nM | 0.9 nM | 4.5 nM | 56.8 nM | N#CC[C@H]1CC[C@H](n2c(C3NC(C4CC4)=NO3)nc3cnc4[nH]ccc4c32)CC1 (stereo partly drawn) [Ex. 140, 2-((1r,4r)-4-(2-(3-Cyclopropyl-4,5-dihydro-1,2,4-oxadiazol-5-yl)imidazo[4,5-d]pyrrolo[2,3-b]pyridin-1(6H)-yl)cyclohexyl)acetonitrile]
18 | 66.7 nM | 0.9 nM | 95.8 nM | 4070 nM | N#CC[C@H]1CC[C@H](n2c(CNS(=O)(=O)C3CCCCC3)nc3cnc4[nH]ccc4c32)CC1 [Ex. 141, N-((1-((1r,4r)-4-(Cyanomethyl)cyclohexyl)-1,6-dihydroimidazo[4,5-d]pyrrolo[2,3-b]pyridin-2-yl)methyl)cyclohexanesulfonamide]
19 | 6.9 nM | 0.9 nM | 10 nM | 383 nM | CS(C)(=O)=NCc1nc2cnc3[nH]ccc3c2n1[C@H]1CC[C@H](CC#N)CC1 [Ex. 142, 2-((1r,4r)-4-(2-(((Dimethyl(oxo)-λ^6-sulfanylidene)amino)methyl)imidazo[4,5-d]pyrrolo[2,3-b]pyridin-1(6H)-yl)cyclohexyl)acetonitrile]
20 | 117 nM | 0.9 nM | 38.5 nM | 1270 nM | N#CC[C@H]1CC[C@H](n2c(-c3ccc(S(F)(F)(F)(F)F)cc3)nc3cnc4[nH]ccc4c32)CC1 [Ex. 143, 2-((1r,4r)-4-(2-(4-(Pentafluoro-λ^6-sulfanyl)phenyl)imidazo[4,5-d]pyrrolo[2,3-b]pyridin-1(6H)-yl)cyclohexyl)acetonitrile]
21 | 16.2 nM | 1 nM | 43.1 nM | 376 nM | N#CC[C@H]1CC[C@H](n2c(CNC(=O)c3cn[nH]c3)nc3cnc4[nH]ccc4c32)CC1 [Ex. 144, N-((1-((1r,4r)-4-(Cyanomethyl)cyclohexyl)-1,6-dihydroimidazo[4,5-d]pyrrolo[2,3-b]pyridin-2-yl)methyl)-1H-pyrazole-4-carboxamide]
22 | 11.3 nM | 1.1 nM | 18 nM | 319 nM | N#CC[C@H]1CC[C@H](n2c(COC(=O)NCC3CCCCC3)nc3cnc4[nH]ccc4c32)CC1 [Ex. 146, (1-((1r,4r)-4-(Cyanomethyl)cyclohexyl)-1,6-dihydroimidazo[4,5-d]pyrrolo[2,3-b]pyridin-2-yl)methyl (cyclohexylmethyl)carbamate]
23 | 87.9 nM | 1.1 nM | 315 nM | 1970 nM | CC(=O)N1CC(c2nc3cnc4[nH]ccc4c3n2[C@H]2CC[C@H](CC#N)CC2)C1 [Ex. 147, 2-((1r,4r)-4-(2-(1-Acetylazetidin-3-yl)imidazo[4,5-d]pyrrolo[2,3-b]pyridin-1(6H)-yl)cyclohexyl)acetonitrile]
24 | 36.2 nM | 1.1 nM | 50.4 nM | 767 nM | N#CC[C@H]1CC[C@H](n2c(CNC(=O)c3ccccc3)nc3cnc4[nH]ccc4c32)CC1 [Ex. 148, N-((1-((1r,4r)-4-(Cyanomethyl)cyclohexyl)-1,6-dihydroimidazo[4,5-d]pyrrolo[2,3-b]pyridin-2-yl)methyl)benzamide]
